{"source": "patent US20060257481A1", "about": "“Sustained release formulation and dosing schedule of leukotriene synthesis inhibitor for human therapy” (deCODE Genetics ehf., priority 2005, published 2006)", "key": {"[1]": {"tested_on": "MPO", "test": "Study DG-031-201: MPO in plasma", "type": "in vivo, human", "conditions": "difference visit 2 to visit 5; 500 and 750 mg/day vs placebo cohort", "experimental": "(§1) Patients who met the study eligebility criteria were enrolled and randomized into 3 different dose-level groups: (1) 64 patients on 250 mg/day therapy with DG-031 (250 mg q.d.), vs placebo; (2) 64 patients on 500 mg/day therapy with DG-031 (250 mg b.i.d.) vs placebo; and (3) 63 patients on 750 mg/day therapy with DG-031 (250 mg t.i.d.) vs placebo. […] All patients received 3 tablets per day. Treatment periods, 4 weeks in duration each, were separated by a 2-week washout period. The placebo tablets were identical in shape, color, form and taste to the active tablets except that they contained no active drug ingredients. Treatment with DG-031 or placebo was in addition to the subject's standard care, including all medications and treatment plan as prescribed by the subject's cardiologist prior to enrolment. A total of 191 subjects were enrolled, with 172 completing all 8 visits or 8 patients short of the target of 180 patients. […]\n(§2) All data were analyzed according to a pre-established statistical analysis plan (SAP) and by intention-to-treat (ITT). […] The difference between DG-031 and placebo treatment was the primary outcome, assessed separately for each of the biomarkers. […]"}, "[2]": {"tested_on": "Lp-PLA2", "test": "Study DG-031-201 cross-over trial: Lp-PLA2", "type": "in vivo, human", "conditions": "highest dose; [3%,16%], p=0.006", "experimental": "as §1, §2"}, "[3]": {"tested_on": "MPO release by ionomycin-activated neutrophils ex vivo", "test": "Study DG-031-201: MPO in whole blood ex vivo after ionomycin activation", "set-up": "species or system human", "conditions": "p=0.02", "experimental": "as §1, §2"}, "[4]": {"test": "Effect of a high fat meal on DG-031 pharmacokinetics", "type": "in vivo, human", "conditions": "administration with a high fat meal", "text": "In the context of treatment of a single individual, a steady state concentration may be expected to fluctuate from day-to-day with variations in the individual's diet, level activity, state of health, co-administration of other medications, and the like. DG-031 is preferably administered with food to improve adsorption. […] In this context, the steady state concentration for an individual refers to an average concentration taken at multiple time points, to adjust for such fluctuation."}, "[5]": {"tested_on": "CRP", "test": "Study DG-031-201 cross-over trial: Hs-CRP in serum", "type": "in vivo, human", "conditions": "for CRP: Study 201, 2-6 wks", "experimental": "(§3) Patients who met the study eligebility criteria were enrolled and randomized into 3 different dose-level groups: (1) 64 patients on 250 mg/day therapy with DG-031 (250 mg q.d.), vs placebo; (2) 64 patients on 500 mg/day therapy with DG-031 (250 mg b.i.d.) vs placebo; and (3) 63 patients on 750 mg/day therapy with DG-031 (250 mg t.i.d.) vs placebo. […] All patients received 3 tablets per day. Treatment periods, 4 weeks in duration each, were separated by a 2-week washout period. The placebo tablets were identical in shape, color, form and taste to the active tablets except that they contained no active drug ingredients. Treatment with DG-031 or placebo was in addition to the subject's standard care, including all medications and treatment plan as prescribed by the subject's cardiologist prior to enrolment. A total of 191 subjects were enrolled, with 172 completing all 8 visits or 8 patients short of the target of 180 patients.\nThe primary objective was to determine whether the FLAP inhibitor has a statistically significant effect, compared to placebo, on one or more biomarkers of MI risk, including: (1) ionomycin-induced LTB4 and MPO release by neutrophils ex vivo; (2) MPO, CRP, N-tyrosine, Lp-PLA2 or amyloid A in serum, or (3) LTE4 in urine. The secondary objective was to determine whether the effect of DG-031 was dose-dependent. The tertiary objective was to assess other biomarkers (See Results). Evaluation of safety and tolerability of the drug was also a primary endpoint.\nAll data were analyzed according to a pre-established statistical analysis plan (SAP) and by intention-to-treat (ITT). Each arm of the study, as well as pooled sets (combining dose levels), was considered for the primary analysis. Each such set is an AB/BA cross-over design and in the primary analysis of efficacy, the levels of biomarkers of MI risk at the end of the treatment periods (visits 4 and 7) were used as primary response variables. The difference between DG-031 and placebo treatment was the primary outcome, assessed separately for each of the biomarkers. Treatment effect was tested using a two-sample t-test on the period differences for suitably transformed response variables, under an assumption of normality of the transformed data. We report treatment effect as one half of the observed mean differences in the two-sample t-test, with a 95% CI. No pre-tests for carry-over effect were performed as a part of the primary analysis. Tests for carry-over were done and are reported separately from results of primary analysis. All hypotheses were tested at a two-sided nominal significance level of 0.05 and p-values based on t-tests are reported. In addition, for the primary efficacy endpoints where the effects of the two highest doses on 10 primary variables were studied, a randomization test was performed which corrects for multiple testing and ensures that the key results are not affected by distributional concerns. In particular, 1 million permutations of the patients into the different study tracks were performed, generating a reference distribution for the maximum of the 10 t-statistics of the biomarkers under the null hypothesis of no drug effect. By comparing the observed t-statistic of each of the 10 biomarkers to this reference distribution, empirical p-values were computed. […]"}, "[6]": {"tested_on": "MCP-1", "test": "Study DG-031-201: MCP-1", "type": "in vivo, human", "conditions": "difference visit 2 to visit 5; 500 and 750 mg/day vs placebo cohort", "experimental": "as §3\nas §2, with “(ITT). Each arm of the study, as well as pooled sets (combining dose levels), was considered for the primary analysis.” for “(ITT).”"}}}
{"smiles": "O=C(O)[C@@H](c1ccc(OCc2ccc3ccccc3n2)cc1)C1CCCC1", "note": "[DG-031, (R)-(+)-alpha-cyclopentyl-4-(2-quinolinylmethoxy)-Benzeneacetic acid]", "values": [{"measurement": "Carry-over effect, MPO in plasma", "setting": "[1]", "result": "−0.11"}, {"measurement": "Increase of Lp-PLA2", "setting": "[2]", "result": 9, "unit": "%"}, {"measurement": "Maximum reduction in MPO production", "setting": "[3]; 750 mg/day, [2%,21%]", "result": 12, "unit": "%"}, {"measurement": "Inhibition of MPO release", "setting": "[3]; combined dose groups of 500 mg and 750 mg TDD", "result": "about 12%"}, {"measurement": "Increase in AUC", "setting": "[4]", "result": 30, "unit": "%"}, {"measurement": "Increase in Cmax", "setting": "[4]", "result": 150, "unit": "%"}, {"measurement": "Tmax", "setting": "[4]", "result": "no effect"}, {"measurement": "half-life", "setting": "[4]", "result": "shorter half-life"}, {"measurement": "Reduction in CRP", "setting": "[5]; 250 mg BID and TID, end of wash-out period (week 6), p=0.02", "result": 25, "unit": "%"}, {"measurement": "CRP", "setting": "[5]; 250 mg BID, p = 0.016", "result": "−24", "unit": "%"}, {"measurement": "CRP", "setting": "[5]; 250 mg QD, NS", "result": "−6", "unit": "%"}, {"measurement": "Persistence of CRP reduction after week 6", "setting": "[5]; after end of wash-out period", "result": 4, "unit": "weeks"}, {"measurement": "Reduction of CRP", "setting": "[5]; higher two dose groups (250 mg BID and 250 mg TID), at 2 weeks, p=0.07, not significant", "result": 16, "unit": "%"}, {"measurement": "Carry-over effect, MCP-1", "setting": "[6]", "result": 0.07}]}
